The record followed here is patent EP2676962A1, “Derivatives of 1-aminoalkylphosphonate diaryl esters, method of 1-aminoalkylphosphonate diaryl ester derivatives preparation and their application” (priority 2012, dated 2013).

Molecules are shown by their SMILES. Where two headings read alike, the source gives them in different places.

Holding throughout (format): biochemical
In assay [1] the target is T1, human neutrophil elastase (HNE) (Homo sapiens, UniProt P08246).
T1 sequence (P08246 30-267): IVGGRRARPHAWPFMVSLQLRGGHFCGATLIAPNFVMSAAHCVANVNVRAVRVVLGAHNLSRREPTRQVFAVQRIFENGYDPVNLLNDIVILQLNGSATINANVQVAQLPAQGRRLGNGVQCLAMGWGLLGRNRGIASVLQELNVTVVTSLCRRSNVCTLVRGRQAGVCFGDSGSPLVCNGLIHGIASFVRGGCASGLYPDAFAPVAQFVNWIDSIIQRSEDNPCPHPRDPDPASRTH
In words: Inhibitory activity toward human neutrophil elastase, fluorogenic substrate, microplate reader. The method, then:
(§1) The biological activity of peptidyl derivatives of phosphonic analogs of valine, alanine, phenylalanine, 4-guanidinephenylglycine, leucine, and 1-aminobutyric acid, containing the N-terminal biotin residue were tested for their ability to inhibit proteolytic activity of selected serine proteases, and the control cysteine proteases. All tests were performed using a microplate reader. As enzyme substrates fluorescent peptides were used. The method to measure the activity of the compounds obtained are described below for each of the enzymes tested: human neutrophil elastase (HNE), porcine pancreatic elastase (PPE), subtilisin (Sub), cathepsin G (CatG), proteinase 3 (PR3), chymotrypsin (ChTry) trypsin (Try), papain (Pap) and cathepsin L (CatL). Measurement of the inhibitory activity was performed at different inhibitor concentrations ranging from 12.5 nM to 2000nm.
Measurement of inhibitory activity of compounds toward human neutrophil elastase (HNE).
The inhibitory activity assay is performed at 37°C in 0,01M HEPES, 0,5M NaCl, 0,03% Triton X-100 buffer, pH 7,5, within 10 min after initial pre-incubation of the enzyme with inhibitor tested at 37°C for 10 min. The enzyme concentration is 0,0025U/ml. Substrate used Me-Suc-Ala-Ala-Pro-Val-AFC at 25µM. Measurement is taken at an excitation wavelength of 400nm and 505nm emission.
(§2) The IC50 value is the concentration of inhibitor required to inhibit half of the enzyme activity after 10 minutes incubation.

For assay [2], the target named is porcine pancreatic elastase (PPE) (Sus scrofa, UniProt P00772). In words: Inhibitory activity toward porcine pancreatic elastase, fluorogenic substrate, microplate reader. The method, then:
as §1
Measurement of inhibitory activity of compounds toward porcine pancreatic elastase (PPE).
The inhibitory activity assay is performed at 37°C in 0,01M Tris-HCl, 0,05% Triton X-100 buffer, pH 8,5, within 10 min after initial pre-incubation of the enzyme with inhibitor tested at 37°C for 10 min. The enzyme concentration is 60nM. Substrate used Me-Suc-Ala-Ala-Pro-Val-AMC at 100µM. Measurement is taken at an excitation wavelength of 350nm and 460nm emission.
as §2

Another assay concerns the target T2, proteinase 3 (PR3) (Homo sapiens, UniProt P24158).
T2 sequence (P24158 28-248): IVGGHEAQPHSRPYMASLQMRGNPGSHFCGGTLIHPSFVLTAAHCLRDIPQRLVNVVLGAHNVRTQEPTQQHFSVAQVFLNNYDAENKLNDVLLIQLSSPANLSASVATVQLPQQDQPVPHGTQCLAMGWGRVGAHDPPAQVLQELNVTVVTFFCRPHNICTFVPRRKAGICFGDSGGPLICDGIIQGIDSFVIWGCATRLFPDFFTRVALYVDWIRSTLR
Kind of assay: Inhibitory activity toward proteinase 3, fluorogenic substrate, microplate reader. The method, then:
as §1
Measurement of inhibitory activity of compounds toward proteinase 3(PR3).
The inhibitory activity assay is performed at 37°C in 0,1M Tric-HCl, 0,5M NaCl buffer, pH 7,5, within 10 min after initial pre-incubation of the enzyme with inhibitor tested at 37°C for 10 min. The enzyme concentration is 17nM. Substrate used Abz-Tyr-Tyr-Abu-Anb-NH2 at 30µM. Measurement is taken at an excitation wavelength of 325nm and 400nm emission.
as §2

Another assay has as its target T3, cathepsin G (CatG) (Homo sapiens, UniProt P08311).
T3 sequence (P08311 21-244): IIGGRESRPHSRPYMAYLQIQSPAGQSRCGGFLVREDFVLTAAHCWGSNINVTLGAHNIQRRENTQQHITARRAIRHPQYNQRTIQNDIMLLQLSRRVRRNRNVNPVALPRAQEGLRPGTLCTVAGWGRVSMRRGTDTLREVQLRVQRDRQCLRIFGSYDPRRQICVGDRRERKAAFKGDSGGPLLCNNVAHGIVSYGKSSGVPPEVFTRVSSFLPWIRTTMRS
In words: Inhibitory activity toward cathepsin G, fluorogenic substrate, microplate reader. The method, then:
as §1
Measurement of inhibitory activity of compounds toward cathepsin G (CatG).
The inhibitory activity assay is performed at 37°C in 0,1M Tric-HCl, 0,5M NaCl buffer, pH 7,5, within 10 min after initial pre-incubation of the enzyme with inhibitor tested at 37°C for 10 min. The enzyme concentration is 100nM. Substrate used MCA-Phe-Val-Thr-Gnf-Ser-Trp-Anb-NH2 at 2.5µM. Measurement is taken at an excitation wavelength of 325nm and 400nm emission.
as §2

The target of the next assay is chymotrypsin (ChTry) (Bos taurus, UniProt P00766). Kind of assay: Inhibitory activity toward chymotrypsin, fluorogenic substrate, microplate reader. The settings on record: 10 min pre-incubation at 37°C, pH 7,5, Suc-Ala-Ala-Pro-Phe-AMC 5µM; NI = brak inhibicji (no inhibition). The method, then:
as §1
Measurement of inhibitory activity of compounds toward […] (ChyTry).
The inhibitory activity assay is performed at 37°C in 0,1M HEPES, 0,5M NaCl buffer, pH 7,5, within 10 min after initial pre-incubation of the enzyme with inhibitor tested at 37°C for 10 min. The enzyme concentration is 3nM. Substrate used Suc-Ala-Ala-Pro-Phe-AMC at 5µM. Measurement is taken at an excitation wavelength of 350nm and 460nm emission.
as §2

The target of another assay is subtilisin (Sub) (Bacillus licheniformis, UniProt P00780). In words: Inhibitory activity toward subtilisin, fluorogenic substrate, microplate reader. The settings on record: for Sub Kobs/[I]: 10 min pre-incubation at 37°C, pH 7,5, Me-Suc-Ala-Ala-Pro-Phe-AMC 5µM, NI = brak inhibicji (no inhibition). The method, then:
as §1
Measurement of inhibitory activity of compounds toward subtilisin (Sub).
The inhibitory activity assay is performed at 37°C in 0,05M Tris-HCl, 1M NaCl, 0,01% Triton X-100 buffer, pH 7,5, within 10 min after initial pre-incubation of the enzyme with inhibitor tested at 37°C for 10 min. The enzyme concentration is 5nM. Substrate used Me-Suc-Ala-Ala-Pro-Phe-AMC at 5µM. Measurement is taken at an excitation wavelength of 350nm and 460nm emission.
as §2

Another assay addresses T4, trypsin (Try) (Bos taurus, UniProt P00760).
T4 sequence (P00760 24-246): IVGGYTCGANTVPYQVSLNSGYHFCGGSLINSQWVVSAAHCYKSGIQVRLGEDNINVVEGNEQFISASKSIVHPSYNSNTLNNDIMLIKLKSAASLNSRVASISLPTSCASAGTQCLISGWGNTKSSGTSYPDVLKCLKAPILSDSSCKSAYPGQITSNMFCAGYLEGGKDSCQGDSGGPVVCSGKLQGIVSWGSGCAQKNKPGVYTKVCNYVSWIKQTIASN
In words: Inhibitory activity toward trypsin, fluorogenic substrate, microplate reader. The note with it: 10 min pre-incubation at 37°C, pH 7,5, Cbz-Arg-AFC 100µM; NI = brak inhibicji (no inhibition). The method, then:
as §1
Measurement of inhibitory activity of compounds toward trypsin (Try).
The inhibitory activity assay is performed at 37°C in 0,1M HEPES, 0,5M NaCl, 0,03% Triton X-100 buffer, pH 7,5, within 10 min after initial pre-incubation of the enzyme with inhibitor tested at 37°C for 10 min. The enzyme concentration is 25nM. Substrate used Cbz-Arg-AFC at 100µM. Measurement is taken at an excitation wavelength of 400nm and 505nm emission.
as §2

The mark [3] stands for this setting: 10 min pre-incubation at 37°C, pH 7,5, Me-Suc-Ala-Ala-Pro-Val-AFC 25µM, NI = brak inhibicji (no inhibition).
[4] abbreviates: read-out: PPE IC50, 10 min pre-incubation at 37°C, pH 8,5, Me-Suc-Ala-Ala-Pro-Val-AMC 100µM, NI = brak inhibicji (no inhibition).
The mark [5] stands for this setting: read-out: PR3 IC50, 10 min pre-incubation at 37°C, pH 7,5, Abz-Tyr-Tyr-Abu-Anb-NH2 30µM, NI = brak inhibicji (no inhibition).
[6] abbreviates: 10 min pre-incubation at 37°C, pH 7,5, MCA-Phe-Val-Thr-Gnf-Ser-Trp-Anb-NH2 2.5µM, NI = brak inhibicji (no inhibition).
Setting [7] is: 10 min pre-incubation at 37°C, pH 7,5, Abz-Tyr-Tyr-Abu-Anb-NH2 30µM, NI = brak inhibicji (no inhibition).

Chain of subtilisin (Sub) (P00780 106-379): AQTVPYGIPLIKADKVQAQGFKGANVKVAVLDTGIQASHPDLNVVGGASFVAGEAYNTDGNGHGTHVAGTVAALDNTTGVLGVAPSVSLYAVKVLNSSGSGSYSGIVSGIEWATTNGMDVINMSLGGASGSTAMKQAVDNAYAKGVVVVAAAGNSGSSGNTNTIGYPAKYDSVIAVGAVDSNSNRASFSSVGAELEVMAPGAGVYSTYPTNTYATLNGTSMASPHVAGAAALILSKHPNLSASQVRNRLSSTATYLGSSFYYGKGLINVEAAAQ
Chain of porcine pancreatic elastase (PPE) (P00772 27-266): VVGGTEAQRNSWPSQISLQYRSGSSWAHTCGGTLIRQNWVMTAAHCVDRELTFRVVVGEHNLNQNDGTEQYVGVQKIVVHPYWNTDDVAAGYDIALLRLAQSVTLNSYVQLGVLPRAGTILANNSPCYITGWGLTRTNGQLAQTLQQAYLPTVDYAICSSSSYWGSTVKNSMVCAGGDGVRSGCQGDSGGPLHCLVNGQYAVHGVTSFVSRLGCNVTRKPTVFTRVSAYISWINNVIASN

By IC50 is commonly meant the concentration that inhibits the measured activity by half. As for `CSc1ccc(OP(=O)(Oc2ccc(SC)cc2)C(CC(C)C)NC(=O)C2CCCN2C(=O)CCCCC2SCC3NC(=O)NC32)cc1` (centres unmarked) [Compound 8, bis(4-(methylthio)phenyl) (3-methyl-1-(1-(5-(2-oxohexahydro-1H-thieno[3,4-d]imidazol-4-yl)pentanoyl)pyrrolidine-2-carboxamido)butyl)phosphonate], the IC50 is 3800 ± 250 nM in assay [1]; > 5000 nM in assay [2] (setting [4]); > 5000 nM at proteinase 3 (PR3) (setting [5]); 1100 ± 139 nM on cathepsin G (CatG); 11.7 ± 0.61 nM against subtilisin (Sub). In assay [1] (setting [3]), the “HNE Kobs/[I]” value is given as 3.0*10^2 M^-1S^-1. Moreover, the “Cat G Kobs/[I]” value on cathepsin G (CatG) (setting [6]) was 1.0*10^3 M^-1S^-1. On chymotrypsin (ChTry), the “ChyTr Kobs/[I]” value was 2.9*10^3 M^-1S^-1. The “Sub Kobs/[I]” value at subtilisin (Sub) is recorded as 9.9*10^4 M^-1S^-1. Moreover, the “Try Kobs/[I]” value on trypsin (Try) is 1*10^3 M^-1S^-1.
Consider `CSc1ccc(OP(=O)(Oc2ccc(SC)cc2)C(Cc2ccccc2)NC(=O)C2CCCN2C(=O)C(NC(=O)CCCCC2SCC3NC(=O)NC32)C(C)C)cc1` (centres unmarked) [Compound 6, bis(4-(methylthio)phenyl) (1-(1-(3-methyl-2-(5-(2-oxohexahydro-1H-thieno[3,4-d]imidazol-4-yl)pentanamido)butanoyl)pyrrolidine-2-carboxamido)-2-phenylethyl)phosphonate], for which the IC50 in assay [1] was 1.55 ± 0.05 nM; in assay [2] (setting [4]) it was > 5000 nM; on proteinase 3 (PR3) (setting [5]), > 5000 nM; on cathepsin G (CatG), 218 ± 45 nM; on subtilisin (Sub), 5.6 ± 0.8 nM. The “HNE Kobs/[I]” value in assay [1] (setting [3]) is given as 2.5*10^5 M^-1S^-1. The “Cat G Kobs/[I]” value on cathepsin G (CatG) (setting [6]) is reported as 5.3*10^3 M^-1S^-1. The “ChyTr Kobs/[I]” value on chymotrypsin (ChTry) is recorded as 1.0*10^5 M^-1S^-1. Moreover, the “Try Kobs/[I]” value on trypsin (Try) was 3.7*10^2 M^-1S^-1.
As for `CCC(NC(=O)C1CCCN1C(=O)C(NC(=O)CCCCC1SCC2NC(=O)NC21)C(C)C)P(=O)(Oc1ccc(SC)cc1)Oc1ccc(SC)cc1` (centres unmarked) [Compound 13, bis(4-(methylthio)phenyl) (1-(1-(3-methyl-2-(5-(2-oxohexahydro-1H-thieno[3,4-d]imidazol-4-yl)pentanamido)butanoyl)pyrrolidine-2-carboxamido)propyl)phosphonate], the IC50 is 2.75 ± 0.05 nM in assay [1]; 23.5 ± 1.95 nM in assay [2]; 227 ± 17 nM on proteinase 3 (PR3); > 5000 nM at cathepsin G (CatG) (read-out: Cat G IC50, 10 min pre-incubation at 37°C, pH 7,5, MCA-Phe-Val-Thr-Gnf-Ser-Trp-Anb-NH2 2.5µM, NI = brak inhibicji (no inhibition)); 147 ± 4 nM against subtilisin (Sub). The “HNE Kobs/[I]” value in assay [1] (setting [3]) was 4.2*10^5 M^-1S^-1. For the same molecule, the “PR3 Kobs/[I]” value at proteinase 3 (PR3) (setting [7]) is recorded as 1.0*10^4 M^-1S^-1. The “ChyTr Kobs/[I]” value at chymotrypsin (ChTry) was 1.2*10^3 M^-1S^-1. At subtilisin (Sub), the “Sub Kobs/[I]” value is 7.8*10^3 M^-1S^-1. For the same molecule, at trypsin (Try), the “Try Kobs/[I]” value was 3*10^2 M^-1S^-1.
As to `CSc1ccc(OP(=O)(Oc2ccc(SC)cc2)C(NC(=O)C(NC(=O)C(NC(=O)C(Cc2ccccc2)NC(=O)CCC(=O)NCCCCCNC(=O)CCCCC2SCC3NC(=O)NC32)C(C)C)C(C)O)c2ccc(NC(=N)N)cc2)cc1` (centres unmarked) [Compound 11, bis(4-(methylthio)phenyl) 10-benzyl-1-(4-guanidinophenyl)-4-(1-hydroxyethyl)-7-isopropyl-3,6,9,12,15,23-hexaoxo-27-(2-oxohexahydro-1H-thieno[3,4-d]imidazol-4-yl)-2,5,8,11,16,22-hexaazaheptacosylphosphonate], the IC50 is > 5000 nM in assay [1] (read-out: HNE IC50, 10 min pre-incubation at 37°C, pH 7,5, Me-Suc-Ala-Ala-Pro-Val-AFC 25µM, NI = brak inhibicji (no inhibition)); > 5000 nM in assay [2] (setting [4]); 603 ± 49 nM against proteinase 3 (PR3); 4740 ± 556 nM against cathepsin G (CatG); 480 ± 15.5 nM at subtilisin (Sub). At proteinase 3 (PR3) (setting [7]), the “PR3 Kobs/[I]” value is 3.8*10^3 M^-1S^-1. Besides, the “Cat G Kobs/[I]” value on cathepsin G (CatG) (setting [6]) is recorded as 2.4*10^2 M^-1S^-1. The “Sub Kobs/[I]” value at subtilisin (Sub) is reported as 2.4*10^3 M^-1S^-1. Moreover, on trypsin (Try), the “Try Kobs/[I]” value is recorded as 2.7*10^3 M^-1S^-1.
